Data from US20030180292A1, “Treatment of B cell malignancies using anti-CD40L antibodies in combination with anti-CD20 antibodies and/or chemotherapeutics and radiotherapy” (IDEC PHARMACEUTICALS, priority 2002, published 2003).

How the values were obtained:
[1] = test system: DHL-4 cells; test: Adriamycin (ADM) cytotoxicity of DHL-4 cells with sCD40L and IDEC-131, Alamar Blue assay; assay type: cell-based; details: 5 days
Protocol: Initially, the minimum concentration of ADM cytotoxic to DHL-4 cells was determined by exposing DHL-4 cells for 4 hours to different concentrations of ADM. The cell cytotoxicity of DHL-4 cells after 5 days in culture was measured by Alamar Blue, a dye-reduction assay by live cells (see Gazzano-Santoro et al., J. Immunol. Meth. 202: 163-171 (1997)). Briefly, 1×10^5 DHL-4 cells in growth medium (RMPI-1640 plus 10% Fetal Calf Serum) were incubated with varying concentrations of ADM (1×10^−6 M to 1×10^−8 M) in cell culture tubes at 37° C. for 4 hours. […] Following incubation, plates were cooled by incubating at room temperature for 10 minutes on a shaker, and the intracellular reduction of the dye was determined. Fluorescence was read using a 96-well fluorometer with excitation at 530 nm and emission at 590 nm. The results are expressed as relative fluorescence units (RFU). The percentage of cytotoxicity was calculated as follows: […]
DHL-4 cells (0.5×10^6 cells/ml) were incubated in the presence of 10 μg/ml of soluble CD40L (sCD40L, P. A. Brams, E. A. Padlan, K. Hariharan, K. Slater, J. Leonard, R. Noelle, and R. Newman, “A humanized anti-human CD154 monoclonal antibody blocks CD154-CD40 mediated human B cell activation,” (manuscript submitted)) for 1 hour at 37° C. […] After 5 days, the cytotoxicity was measured by Alamar Blue dye-uptake assay, as described.

[2] = test system: HLA-DR expression on CD19+ CLL cells; test: HLA-DR expression on CD19+ CLL cells by flow cytometry; assay type: cell-based, human; details: for HLA-DR+ % Positive / HLA-DR+ MFI: CD19+ B-cells, 5 μg/ml CD40L
Protocol: To determine whether the CD40L-CD40 signal transduction pathway is intact, CLL cells from CLL patients were cultured (5×10^5 cells/ml) with and without 5 μg/ml of CD40L at 37° C. At 48 hours and 144 hours, the class II molecule, HLA-DR expression, was determined on […] cells by flow cytometry using standard procedures. Briefly, cultured lymphocytes were harvested at different time points and analyzed for surface expression of molecules using antibodies coupled to either fluorescein (FITC) or phycoerythrin (PE) for single or double staining using a FACScan (Becton-Dickinson) flow cytometer. To stain for flow cytometry, 1×10^6 cells in culture tubes were incubated with appropriate antibodies as follows: anti-CD45-FITC to gate lymphocyte population on a scatter plot; anti-CD19-PE (Pharmingen. Cat. #30655) or anti-CD20-FITC (Pharmingen; Cat. #33264) antibodies to determine the CD19^+ and/or […] B-cells; anti-CD3-FITC antibodies (Pharmingen; Cat. #30104) to gate-off the T cells; anti-CD19-RPE and anti-HLA-DR-FITC antibodies (Pharmingen; Cat. #32384) to determine the Pclass II expression on CD19^+ cells. Cells were washed once by centrifugation (at 200×g, for 6 min.) with 2 ml cold PBS and incubated with antibody for 30 min. on ice, after which the cells washed once, fixed in 0.5% paraformaldehyde and stored at 4° C. until analyzed. Flow cytometry data was acquired on FACsan and analyzed using WinList software (Verity Software House). The machine was set to autogating to allow examination of quadrants containing cells that were single stained with either RPE or FITC, unstained or doubly stained.

[3] = test system: B-CLL cells; test: Growth and survival of B-CLL cells after 7 days in culture, Alamar Blue assay; assay type: cell-based, human; details: cultures with sCD40L
[4] = test system: B-CLL cells; test: Survival of B-CLL cells in culture, Trypan blue dye exclusion; assay type: cell-based, human; details: for % Viability (+) CD40L: sCD40L 5 μg/ml
Protocol: Peripheral blood mononuclear cells (PBMC) were isolated from a CLL patient's blood using a Ficoll-Hypaque gradient centrifulation. Viability was determined by Tryan blue dye exclusion and was >98%. […] CLL cells (PBMC) were cultured in CLL growth medium (e.g. RPMI-1640 medium supplemented with 5% FCS or 2% of autologous donor plasma, supplemented with 2 mM L-Glutamine and 100 U/ml Penicillin-Streptomycin). In addition. for some experiments, CD19^+ B-cells were purified using CD19^+ Dynabeads™ as per manufacture's instructions (Dynal, Cat. #111.03/111.04) and cultured as above. CLL or purified B-CLL cells cultured in growth medium mostly under went spontaneous apoptotic cell death. […] Table II indicates the cell viability of CD19^+ B-CLL cells grown in the presence or absence of sCD40L (5 μg/ml) at different time points and indicates the longer survival of CLL cells. B-CLL cells from Patient #1 cultured with sCD40L had ≧60% viability for greater than 2 weeks, whereas cells grown in the absence of sCD40L had less than 10% viability.

| Compound | cytotoxicity to DHL-4 cells (in words) ([1]; exposed to ADM in the absence of sCD40L) | HLA-DR+ % Positive ([2]; 48 hrs) [%] | HLA-DR+ MFI ([2]; 48 hrs) | HLA-DR+ % Positive ([2]; 144 hrs) [%] | HLA-DR+ MFI ([2]; 144 hrs) | HLA-DR expression on B-CLL cells (in words) ([2]; cultured in the presence of sCD40L vs not) | cell survival of B-CLL cells (in words) [3] | % Viability (+) CD40L ([4]; B-CLL Patient #1, 0 Hours) | % Viability (+) CD40L ([4]; B-CLL Patient #1, 48 Hours) [%] | % Viability (+) CD40L ([4]; B-CLL Patient #1, 96 Hours) [%] | % Viability (+) CD40L ([4]; B-CLL Patient #1, 144 Hours) [%] | % Viability (+) CD40L ([4]; B-CLL Patient #2, 0 Hours) | % Viability (+) CD40L ([4]; B-CLL Patient #2, 72 Hours) [%] | % Viability (+) CD40L ([4]; B-CLL Patient #2, 96 Hours) [%] | % Viability (+) CD40L ([4]; B-CLL Patient #2, 144 Hours) [%] | viability of B-CLL cells cultured with sCD40L ([4]; Patient #1, for greater than 2 weeks) [%] | viability of CLL or purified B-CLL cells in culture (in words) ([4]; cultured in the presence of sCD40L) | survival of DHL-4 cells after ADM treatment (in words) ([1]; sCD40L 10 μg/ml, ADM 2×10^−7 M-4×10^−8 M for 4 hours) |
| --- | --- | --- | --- | --- | --- | --- | --- | --- | --- | --- | --- | --- | --- | --- | --- | --- | --- | --- |
| COc1cccc2c1C(=O)c1c(O)c3c(c(O)c1C2=O)C[C@@](O)(C(=O)CO)C[C@@H]3O[C@H]1C[C@H](N)[C@H](O)[C@H](C)O1 [ADM, adriamycin] | increased cytotoxicity | – | – | – | – | – | – | – | – | – | – | – | – | – | – | – | – | – |
| sCD40L: soluble CD40L | – | 88 | 101 | 95 | 2943 | higher level of HLA-DR expression | cell survival | ≧90% | 90 | 77 | 72 | ≧90% | 72 | 65 | 51 | ≥ 60 | extended their viability | prolonged survival |
